Test results published in ChEMBL document CHEMBL1151704, “Nicotinic acid receptor agonists” (J Med Chem, 2008).
pEC50, pIC50: −log10 of the molar value.

How the values were obtained:
Rattus norvegicus = species: Rattus norvegicus; assay: Reduction of plasma free fatty acid in Sprague-Dawley rat; type: functional
[1] = Therapeutic index, ratio of ED50 for plasma free fatty acid in Sprague-Dawley rat to ED50 for vasodilation in mouse; conditions: read-out: Ratio ED50
[2] = molecular target: Hydroxycarboxylic acid receptor 2 (Homo sapiens, UniProt Q8TDS4); assay: Activity at GPR109a assessed as inhibition of forskolin-stimulated cAMP production; type: functional
[3] = molecular target: Hydroxycarboxylic acid receptor 3 (Homo sapiens, UniProt P49019); assay: Activity at GPR109b assessed as inhibition of forskolin-stimulated cAMP production; type: functional
Sequence of Hydroxycarboxylic acid receptor 3 (P49019 whole entry): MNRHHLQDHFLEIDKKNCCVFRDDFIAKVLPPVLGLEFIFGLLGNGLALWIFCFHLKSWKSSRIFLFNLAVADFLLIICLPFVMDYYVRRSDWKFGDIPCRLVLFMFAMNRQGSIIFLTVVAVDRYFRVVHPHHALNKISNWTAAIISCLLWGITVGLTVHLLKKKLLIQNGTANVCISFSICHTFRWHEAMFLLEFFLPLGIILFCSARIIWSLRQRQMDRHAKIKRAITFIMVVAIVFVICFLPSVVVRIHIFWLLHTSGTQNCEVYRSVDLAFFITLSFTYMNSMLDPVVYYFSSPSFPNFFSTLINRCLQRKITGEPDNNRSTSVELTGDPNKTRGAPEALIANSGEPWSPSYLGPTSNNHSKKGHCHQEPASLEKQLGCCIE

Sequence of Hydroxycarboxylic acid receptor 2 (Q8TDS4 whole entry): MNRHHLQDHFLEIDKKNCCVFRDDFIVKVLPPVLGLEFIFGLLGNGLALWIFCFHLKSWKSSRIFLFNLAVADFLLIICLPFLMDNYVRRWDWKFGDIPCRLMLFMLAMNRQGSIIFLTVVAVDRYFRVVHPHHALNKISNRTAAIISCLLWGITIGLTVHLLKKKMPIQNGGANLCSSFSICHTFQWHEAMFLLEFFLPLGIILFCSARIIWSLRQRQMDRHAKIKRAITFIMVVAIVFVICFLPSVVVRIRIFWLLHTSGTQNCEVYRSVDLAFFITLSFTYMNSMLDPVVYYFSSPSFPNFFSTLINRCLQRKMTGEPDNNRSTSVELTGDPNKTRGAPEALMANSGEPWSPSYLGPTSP

Row | Compound | ED50 (Rattus norvegicus) | selectivity ratio [1] | pEC50 [2] | pIC50 [2] | pIC50 [3]
1 | O=C(CCc1nc(-c2ccc(O)cn2)no1)Nc1ccccc1C(=O)O | 9 mg/kg | > 70 | – | – | –
2 | CC(C)n1nnc2cc(C(=O)O)ccc21 | – | – | 6.40 | – | –
3 | O=C(CCc1nc(-c2ccc(O)cc2)no1)Nc1ccccc1C(=O)O | 9 mg/kg | > 70 | – | – | –
4 | CC1(c2ccccc2)OC(C(=O)O)=CC1=O (configuration not stated) [ACIFRAN] | – | – | – | 6.30 | 5.52
